The values below come from patent publication US6511666B1, “Diagnostics and treatments of periodontal disease” (priority 1995, dated 2003).

Assay [1] has as its target T1, 45 kDa Arg-specific proteinase (Porphyromonas gingivalis, UniProt P28784).
T1 construct: made in house; host or cells: native protein purified from sonicate of P. gingivalis W50 cells (Q-sepharose, Superose 12, Arg-sepharose 200 mM arginine eluant, Mono Q)
The experiment in a line: biochemical. Conditions: for activity at 1000 µM / activity at 10000 µM / activity at 100 µM: read-out: Activity (%) of the 45 kDa Arg-specific proteinase. The format is biochemical, P. gingivalis W50.

The target of assay [2] is 48 kDa Lys-specific proteinase (PrtK48) (Porphyromonas gingivalis, UniProt Q51817). The format is biochemical, P. gingivalis W50.
Chain of 48 kDa Lys-specific proteinase (PrtK48) (Q51817 229-680 limits assumed): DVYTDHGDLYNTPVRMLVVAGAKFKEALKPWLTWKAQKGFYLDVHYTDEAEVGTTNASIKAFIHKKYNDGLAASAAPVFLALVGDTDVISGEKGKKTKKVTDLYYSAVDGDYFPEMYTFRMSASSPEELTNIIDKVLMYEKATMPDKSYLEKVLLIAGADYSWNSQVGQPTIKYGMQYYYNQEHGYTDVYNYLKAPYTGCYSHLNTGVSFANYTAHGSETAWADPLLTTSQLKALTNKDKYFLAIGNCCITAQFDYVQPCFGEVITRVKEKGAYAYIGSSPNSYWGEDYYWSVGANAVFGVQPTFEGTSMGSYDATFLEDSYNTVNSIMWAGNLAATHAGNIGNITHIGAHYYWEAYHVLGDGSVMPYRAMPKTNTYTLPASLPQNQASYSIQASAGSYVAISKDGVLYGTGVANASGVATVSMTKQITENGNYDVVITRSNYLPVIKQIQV
Assay [3] concerns the target PrtR45, 45 kDa Arg-specific proteinase (Porphyromonas gingivalis W50). The experiment in a line: cell-based or functional assay.
Where [4] appears, read: compound 1.0 mM, incubation also contained 1.0 mM 2-mercaptoethanol.
Setting [5] is: compound 10.0 mM, incubation also contained 1.0 mM 2-mercaptoethanol.

T1 sequence (P28784 228-719): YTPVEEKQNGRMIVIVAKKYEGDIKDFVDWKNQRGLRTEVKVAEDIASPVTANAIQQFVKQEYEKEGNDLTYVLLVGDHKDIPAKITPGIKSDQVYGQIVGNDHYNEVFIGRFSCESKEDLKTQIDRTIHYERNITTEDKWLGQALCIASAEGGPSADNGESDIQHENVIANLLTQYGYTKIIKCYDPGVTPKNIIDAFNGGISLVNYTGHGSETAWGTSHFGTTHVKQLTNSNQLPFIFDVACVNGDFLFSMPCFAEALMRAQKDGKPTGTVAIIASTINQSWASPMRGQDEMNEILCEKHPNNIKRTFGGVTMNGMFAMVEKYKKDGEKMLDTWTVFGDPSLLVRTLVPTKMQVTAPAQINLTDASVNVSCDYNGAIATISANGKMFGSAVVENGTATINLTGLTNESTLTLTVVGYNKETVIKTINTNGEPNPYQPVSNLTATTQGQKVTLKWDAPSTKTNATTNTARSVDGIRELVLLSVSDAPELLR
Chain of PrtR45, 45 kDa Arg-specific proteinase (Porphyromonas gingivalis W50) (B2RM93 225-247): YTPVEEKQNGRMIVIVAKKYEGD

Consider `O[C@H](CS)[C@H](O)CS` (racemic) [Dithiothreitol], for which, in assay [1], the activity at 1000 µM stood at 109% and the activity at 10000 µM was found to be 174%.

As for `OCCS` [2-mercaptoethanol], the “Activity (%) of the 45 kDa Arg-specific proteinase” value in assay [1] (compound 1.0 mM) came out at 100%; in assay [1] (compound 10.0 mM) it was 158%; in assay [1] (compound 50.0 mM), 189%.

`NCCc1ccc(S(=O)(=O)F)cc1` [AEBSF, [4-(2-aminoethyl)-benzenesulfonylfluoride]]: in assay [1], the “Effect on the Arg-specific 45 kDa enzyme (in words)” value was “not inhibited”. The “Activity (%) of the 45 kDa Arg-specific proteinase” value was found to be 93% in assay [1] (setting [4]) and 80% in assay [1] (setting [5]).

`O=C(O)CN(CCN(CC(=O)O)CC(=O)O)CC(=O)O` [EDTA]: the “Effect on the Arg-specific 45 kDa enzyme (in words)” value in assay [1] is on record as “inhibited”. The “Activity (%) of the 45 kDa Arg-specific proteinase” value is listed as 97% in assay [1] (EDTA +Ca2+ 50.0 mM, incubation also contained 1.0 mM 2-mercaptoethanol); 100% in assay [1] (setting [4]); 4% in assay [1] (setting [5]); 0% in assay [1] (compound 50.0 mM, incubation also contained 1.0 mM 2-mercaptoethanol). Moreover, in assay [2], the “Effect on the Lys-specific enzyme (in words)” value is listed as “not inhibited”.

For `O=C(O)CI` [Iodoacetic acid], in assay [1], the activity at 1000 µM amounted to 82% and the activity at 10000 µM turned out to be 19%.

With `N[C@@H](CS)C(=O)O` [L-cysteine], in assay [1], the “Effect on the Arg-specific 45 kDa enzyme (in words)” value is recorded as “activated”, the activity at 100 µM was 183%, the activity at 1000 µM came out at 320% and the activity at 10000 µM is 487%.

On to `CC(=O)N[C@@H](CC(C)C)C(=O)N[C@@H](CC(C)C)C(=O)N[C@H](C=O)CCCNC(=N)N` [Leupeptin], for which, in assay [1], the “Effect on the Arg-specific 45 kDa enzyme (in words)” value was “inhibited” and the activity at 100 µM was 0%. The “Effect on the Lys-specific enzyme (in words)” value in assay [2] is on record as “not inhibited”.

`O=C(O)c1cc[c]([Hg][Cl])cc1` [PCMB, p-chloromercuribenzoic acid]: the “Activity (%) of the 45 kDa Arg-specific proteinase” value in assay [1] (setting [4]) is 100%; in assay [1] (setting [5]), 14%.

With `O=S(=O)(F)Cc1ccccc1` [PMSF, phenylmethyl sulfonyl fluoride], the “Effect on the Arg-specific 45 kDa enzyme (in words)” value in assay [1] is recorded as “not inhibited”. The “Activity (%) of the 45 kDa Arg-specific proteinase” value in assay [1] (setting [5]) amounted to 90%.

On to `c1cnc2c(c1)ccc1cccnc12` [o-phenanthroline], for which the “Activity (%) of the 45 kDa Arg-specific proteinase” value in assay [1] (setting [5]) was 100%.

For the compound Leupeptin (peptide), the Activity (%) (amidolytic activity, leupeptin at 0.1 mM) in assay [3] was 0%.
